Test results taken from US9718790B2, “Triazine derivative and pharmaceutical composition having an analgesic activity comprising the same” (SHIONOGI & CO., LTD., priority 2010, dated 2017).
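Note: stimulus was 50 nM ATP with fluorescence followed for 3 min, and the response per well was peak post-ATP fluorescence divided by the reading at measurement start.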

What follows are compounds tested against human P2X3 receptor (Homo sapiens (Human), UniProt P56373) (assay: Evaluation of human P2X3 receptor inhibitory activity (Fluo-3 calcium fluorescence, FDSS 3000, ATP stimulation)). Settings: C6BU-1 cells stably expressing human P2X3 receptor.
Chain of human P2X3 receptor (P56373 whole entry): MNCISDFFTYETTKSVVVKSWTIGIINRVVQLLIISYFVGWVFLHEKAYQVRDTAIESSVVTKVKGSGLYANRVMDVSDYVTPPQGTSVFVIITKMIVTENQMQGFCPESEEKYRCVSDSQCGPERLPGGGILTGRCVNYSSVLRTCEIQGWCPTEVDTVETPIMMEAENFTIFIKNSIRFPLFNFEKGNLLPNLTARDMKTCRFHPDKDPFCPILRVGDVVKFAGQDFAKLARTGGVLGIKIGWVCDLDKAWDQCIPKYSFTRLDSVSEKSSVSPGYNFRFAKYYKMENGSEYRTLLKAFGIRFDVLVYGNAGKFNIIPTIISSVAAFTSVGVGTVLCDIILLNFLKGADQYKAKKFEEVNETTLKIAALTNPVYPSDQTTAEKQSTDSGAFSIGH
Assay type: cell-based
Compound `COc1cc(/N=c2\[nH]c(=O)n(CCCO)c(=O)n2Cc2ccc(Cl)cc2)ccc1OC(C)C` [Compound I-2002] has an IC50 of 8 nM.
`Cc1cc2cc(/N=c3\[nH]c(=O)n(CCCOC4CCCCO4)c(=O)n3Cc3ccc(Cl)cc3)ccc2o1` (stereo not shown) [Compound I-2025] showed an IC50 of 5 nM.
`CNC(=O)Cn1c(=O)[nH]/c(=N\c2ccc(OC3CCC3)cc2)n(Cc2ccc(Cl)cc2)c1=O` [Compound I-1948] showed an IC50 of 22 nM.
Compound `COCCOc1ccc(/N=c2\[nH]c(=O)n(C[C@H](C)C(=O)O)c(=O)n2Cc2ccc(Cl)cc2)cc1` [Compound I-0748] has an IC50 of 295 nM.
Work on `CCn1c(=O)[nH]/c(=N\c2ccc(Oc3nc(C(=O)O)cs3)cc2)n(Cc2ccc(Cl)cc2)c1=O` [Compound I-2193] yielded an IC50 of 6 nM.
For `CC(C)OCc1ccc(/N=c2\[nH]c(=O)n(C[C@H](C)C(=O)O)c(=O)n2Cc2ccc(Cl)cc2)cc1` [Compound I-0669], the IC50 was 193 nM.
Compound `CC(C)Oc1ccc(/N=c2\[nH]c(=O)n(C[C@H](O)CO)c(=O)n2Cc2ccc(Cl)cc2)cc1Cl` [Compound I-0638, (R)-1-(4-chlorobenzyl)6-(3-chloro-4-isopropoxyphenylamino)-3-(2,3-dihydroxypropyl)-1,3,5-triazinane-2,4-dion] has an IC50 of 6 nM.
Compound `CC(C)Oc1ccc(/N=c2\[nH]c(=O)n(CCNC(=N)N)c(=O)n2Cc2ccc(Cl)cc2)cc1F` [Compound I-0659, 1-(4-chlorobenzyl)-6-(3-fluoro-4-isopropoxyphenylimino)-3-(4-imino-4-amino-3-azabutyl)-1,3,5-triazinane-2,4-dion] has an IC50 of 134 nM.
With `COC(=O)CCCn1c(=O)[nH]/c(=N\c2ccc(Oc3ccncc3)cc2)n(Cc2ccc(Cl)cc2)c1=O` [Compound I-1245] the IC50 was 3 nM.
`CC(C)Oc1ccc(/N=c2\[nH]c(=O)n(C[C@@H]3COC(C)(C)O3)c(=O)n2Cc2ccc(Cl)cc2)cc1Cl` [Compound I-0614] showed an IC50 of 10 nM.
For `O=c1[nH]/c(=N\c2ccc3nc(C(F)(F)F)sc3c2)n(Cc2ccc(Cl)cc2)c(=O)n1CCO` [Compound I-2167], the IC50 was 54 nM.
Compound `CCn1c(=O)[nH]/c(=N\c2ccc(Oc3ccc(C(=O)OC)nc3)cc2)n(Cc2ccc(Cl)cc2)c1=O` [Compound I-2105] has an IC50 of 1 nM.
Work on `CC(C)Oc1ccc(/N=c2\[nH]c(=O)n(C[C@H]3COC(C)(C)O3)c(=O)n2Cc2ccc(Cl)cc2)cc1Cl` [Compound I-0633] yielded an IC50 of 4 nM.
Compound `COC(=O)[C@@H](C)Cn1c(=O)[nH]/c(=N\c2ccc(CC(C)C)c(OC)c2)n(Cc2ccc(Cl)cc2)c1=O` [Compound I-1247] has an IC50 of 28 nM.
Compound `COC(=O)[C@@H](C)Cn1c(=O)[nH]/c(=N\c2ccc(OC3COC3)cc2)n(Cc2ccc(C)cc2)c1=O` [Compound I-1218] has an IC50 of 61 nM.
`COC(=O)[C@@H](C)Cn1c(=O)[nH]/c(=N\c2ccc(NC(C)=O)cc2)n(Cc2ccc(C)cc2)c1=O` [Compound I-1415] was tested, and the IC50 was 532 nM.
For `CCn1c(=O)[nH]/c(=N\c2ccc(Oc3cc(C(=O)O)ncn3)cc2)n(Cc2ccc(Cl)cc2)c1=O` [Compound I-2209], the IC50 was 8 nM.
For `CCCc1nc2ccc(/N=c3\[nH]c(=O)n(C[C@H](C)C(=O)OC)c(=O)n3Cc3ccc(Cl)cc3)cc2o1` [Compound I-1327], the IC50 was 73 nM.
`COC(=O)[C@@H](C)Cn1c(=O)[nH]/c(=N\c2ccc(Br)c(OC)c2)n(Cc2ccc(C)cc2)c1=O` [Compound I-1195] was tested, and the IC50 was 221 nM.
Work on `COCCOc1ccc(/N=c2\[nH]c(=O)n(C[C@H](C)C(=O)O)c(=O)n2Cc2ccc(Cl)cc2)cc1Cl` [Compound I-0789] yielded an IC50 of 181 nM.
`Cc1ccc(Cn2c(=O)n(C[C@H](C)C(=O)O)c(=O)[nH]/c2=N\c2ccc(NC(=O)C(C)C)c(Cl)c2)cc1` [Compound I-1420] was tested, and the IC50 was 607 nM.
`O=c1[nH]/c(=N\c2ccc(OC3CCC3)cc2)n(Cc2ccc(Cl)cc2)c(=O)n1CC(CO)CO` [Compound I-1974] gave an IC50 of 7 nM.
Work on `C[C@@H](Cn1c(=O)[nH]/c(=N\c2ccc(OC(F)F)c(F)c2)n(Cc2ccc(Cl)cc2)c1=O)C(=O)O` [Compound I-0658] yielded an IC50 of 109 nM.

Same assay, conditions: C6BU-1 cells stably expressing human P2X3 receptor, Fluo-3 fluorescence, FDSS 3000
`Cc1ccc(Cn2c(=O)n(CCC(=O)O)c(=O)[nH]/c2=N\c2ccc(OCC(C)(C)C)cc2)cc1` [Compound I-1071] was tested, and the IC50 was 998 nM.
For `COC(=O)[C@@H](C)Cn1c(=O)[nH]/c(=N\c2ccc(CC3CCCC3)cc2)n(Cc2ccc(C)cc2)c1=O` [Compound I-1096], the IC50 was 94 nM.
For `CCn1c(=O)[nH]/c(=N\c2ccc3nc(C)sc3c2)n(Cc2ccc(Cl)cc2)c1=O` [Compound I-1702], the IC50 was 4 nM.
For `CC[C@H](C)COc1ccc(/N=c2\[nH]c(=O)n(CCC(=O)O)c(=O)n2Cc2ccc(C)cc2)cc1` [Compound I-1066], the IC50 was 425 nM.
With `CC[C@@H](C)Oc1ccc(/N=c2\[nH]c(=O)n(CCC(=O)O)c(=O)n2Cc2ccc(C)cc2)cc1` [Compound I-1028] the IC50 was 78 nM.
Work on `CCc1oc2ccc(/N=c3\[nH]c(=O)n(CC(=O)NCCO)c(=O)n3Cc3ccc(Cl)cc3)cc2c1C` [Compound I-1658] yielded an IC50 of 6 nM.
`CSc1cccc(/N=c2\[nH]c(=O)n(C[C@H](C)C(=O)O)c(=O)n2Cc2ccc(C)cc2)c1` [Compound I-1154] showed an IC50 of 131 nM.
Compound `COC(=O)[C@@H](C)Cn1c(=O)[nH]/c(=N\c2ccc(OC(F)(F)F)c(Cl)c2)n(Cc2ccc(C)cc2)c1=O` [Compound I-1027] has an IC50 of 41 nM.
`COC(=O)[C@@H](C)Cn1c(=O)[nH]/c(=N\c2ccc(OCCC(C)C)cc2)n(Cc2ccc(C)cc2)c1=O` [Compound I-1049] showed an IC50 of 177 nM.
`COC(=O)[C@@H](C)Cn1c(=O)[nH]/c(=N\c2ccc(CC(C)C)c(C)c2)n(Cc2ccc(C)cc2)c1=O` [Compound I-1043] showed an IC50 of 10 nM.
`Cc1cc(/N=c2\[nH]c(=O)n(C[C@H](C)C(=O)O)c(=O)n2Cc2ccc(Cl)cc2)ccc1C#CC1CC1` [Compound I-1042] showed an IC50 of 148 nM.
Work on `Cc1ccc(Cn2c(=O)n(C[C@H](C)C(=O)O)c(=O)[nH]/c2=N\c2ccc(C3CCCC3)cc2)cc1` [Compound I-1113] yielded an IC50 of 123 nM.
In the case of `C/C=C\c1ccc(Cn2c(=O)n(C[C@H](C)C(=O)O)c(=O)[nH]/c2=N\c2ccc(OC(C)C)cc2)cc1` [Compound I-1150], the IC50 is reported as 551 nM.
Compound `COC(=O)Cn1c(=O)[nH]/c(=N\c2ccc(Oc3ccnc(C)c3)cc2)n(Cc2ccc(Cl)cc2)c1=O` [Compound I-1754] has an IC50 of 5 nM.
Compound `Cc1ccc(Cn2c(=O)n(C[C@H](C)C(=O)O)c(=O)[nH]/c2=N\c2ccc(OC(F)F)c(Cl)c2)cc1` [Compound I-1032] has an IC50 of 33 nM.
`CCn1c(=O)[nH]/c(=N\c2ccc(Oc3cc(O)ncn3)cc2)n(Cc2ccc(Cl)cc2)c1=O` [Compound I-1888] was tested, and the IC50 was 10 nM.
For `CC1(C)OCC(Cn2c(=O)[nH]/c(=N\c3ccc(OCC4CC4)cc3)n(Cc3ccc(Cl)cc3)c2=O)CO1` [Compound I-1841], the IC50 was 6 nM.
Work on `COC(=O)[C@@H](C)Cn1c(=O)[nH]/c(=N\c2cccc(C3CCCCC3)c2)n(Cc2ccc(C)cc2)c1=O` [Compound I-1088] yielded an IC50 of 548 nM.
Compound `CCc1oc2ccc(/N=c3\[nH]c(=O)n(CCCC(=O)O)c(=O)n3Cc3ccc(Cl)cc3)cc2c1C` [Compound I-1704] has an IC50 of 15 nM.
In the case of `CCc1oc2ccc(/N=c3\[nH]c(=O)n(CC(=O)O)c(=O)n3Cc3ccc(Cl)cc3)cc2c1C` [Compound I-1609], the IC50 is reported as 187 nM.
In the case of `COC(=O)[C@@H](C)Cn1c(=O)[nH]/c(=N\c2ccc(C#CC3CC3)c(C)c2)n(Cc2ccc(Cl)cc2)c1=O` [Compound I-1041, (S)-1-(4-chlorobenzyl)-6-(3-mehyl-4-cyclopropylethynylphenylimino)-3-(2-methoxycarbonylpropyl)-1,3,5-triazinane-2,4-dion], the IC50 is reported as 101 nM.

Same assay, conditions: human P2X3 receptor, Test Example 1
`CO/N=C/c1ccc(/N=c2\[nH]c(=O)n(C[C@H](C)C(=O)OC)c(=O)n2Cc2ccc(Cl)cc2)cc1F` [Compound I-0881, (S)-1-(4-chlorobenzyl)-6-(3-fluoro-4-methoxyiminomethylphenylimino)-3-(2-methoxycarbonylpropyl)-1,3,5-triazinane-2,4-dion] gave an IC50 of 127 nM.
Work on `CCn1c(=O)[nH]/c(=N\c2ccc(Oc3ccnnc3)cc2)n(Cc2ccc(C)cc2)c1=O` [Compound I-2599] yielded an IC50 of 4 nM.
`C=C(C)c1ccc(/N=c2\[nH]c(=O)n(C[C@H](C)C(=O)O)c(=O)n2Cc2ccc(C)cc2)cc1Cl` [Compound I-1492] was tested, and the IC50 was 461 nM.
In the case of `CNCCCn1c(=O)[nH]/c(=N\c2ccc(OC(C)C)c(F)c2)n(Cc2ccc(Cl)cc2)c1=O` [Compound I-2316], the IC50 is reported as 51 nM.
`Cc1nsc(Oc2ccc(/N=c3\[nH]c(=O)n(CC(CO)CO)c(=O)n3Cc3ccc(Cl)cc3)cc2)n1` [Compound I-2520] gave an IC50 of 2 nM.
Work on `CNC(=O)Cn1c(=O)[nH]/c(=N\c2ccc(Oc3nccs3)cc2)n(Cc2ccc(Cl)cc2)c1=O` [Compound I-2645] yielded an IC50 of 18 nM.
`CC(=O)NCCn1c(=O)[nH]/c(=N\c2ccc(Oc3ccon3)cc2)n(Cc2ccc(Cl)cc2)c1=O` [Compound I-2524] was tested, and the IC50 was 34 nM.
`O=C(O)CCn1c(=O)[nH]/c(=N\c2ccc(Oc3cccc(F)n3)cc2)n(Cc2ccc(Cl)cc2)c1=O` [Compound I-2653] showed an IC50 of 9 nM.
`CCn1c(=O)nc(Nc2ccc(Oc3ccc(C(=O)O)nn3)cc2)n(Cc2ccc(F)cc2)c1=O` [Compound I-2699] showed an IC50 of 134 nM.
Compound `O=c1[nH]/c(=N\c2ccc(Oc3ccon3)c(F)c2)n(Cc2ccc(Cl)cc2)c(=O)n1CCO` [Compound I-2438] has an IC50 of 7 nM.
`CNC(=O)Cn1c(=O)[nH]/c(=N\c2ccc(Oc3cccc(F)n3)cc2)n(Cc2ccc(Cl)cc2)c1=O` [Compound I-2585] showed an IC50 of 8 nM.
Compound `CC(C)Cc1ccc(/N=c2\[nH]c(=O)n(C[C@H](C)C(=O)O)c(=O)n2Cc2ccc(Cl)cn2)cc1Cl` [Compound I-1540] has an IC50 of 52 nM.
For `Cn1c(=O)[nH]/c(=N\c2ccc(Oc3cc(C(N)=O)n[nH]3)cc2)n(Cc2ccc(Cl)cc2)c1=O` [Compound I-2416], the IC50 was 54 nM.
`O=c1[nH]/c(=N\c2ccc(Oc3ncccn3)cc2)n(Cc2ccc(Cl)cc2)c(=O)n1CC(CO)CO` [Compound I-2544] gave an IC50 of 11 nM.
Compound `NC(=O)Cn1c(=O)[nH]/c(=N\c2ccc(Oc3cnsn3)cc2)n(Cc2ccc(Cl)cc2)c1=O` [Compound I-2675] has an IC50 of 13 nM.
With `Cc1nsc(Oc2ccc(/N=c3\[nH]c(=O)n(C[C@H](O)CO)c(=O)n3Cc3ccc(Cl)cc3)cc2F)n1` [Compound I-2708] the IC50 was 2 nM.
Compound `O=c1[nH]/c(=N\c2ccc(Oc3ccon3)cc2)n(Cc2ccc(Cl)cc2)c(=O)n1CCOC1CCCCO1` (stereo not shown) [Compound I-2288] has an IC50 of 1 nM.
